Data on 14 compounds can be found in patent publication US12643884B2, “1-(2-(4-cyclopropyl-1H-1,2,3-triazol-1-yl)acetyl)-4-hydroxypyrrolidine-2-carboxa|mide derivatives as VHL inhibitors for the treatment of anemia” (Genentech, Inc., priority 2020, dated 2026).

Data set [1] has as its target T1, NanoLuc VHL fusion protein stably expressed in HEK 293 cells (Homo sapiens, UniProt P40337).
T1 construct: expressed in transfected cells
Kind of data set: VHL HEK-293 BRET Assay (VHL NanoBRET Target Engagement Assay). Type of data set: cell-based. The settings on record: for pIC50: HEK293 cells, nanoBRET, geometric mean where more than one measurement, read-out: VHL binding in cells (HEK293 nanoBRET); for Ratio cell permeability shift: ratio of nanoBRET in cells to nanoBRET +Digitonin. The procedure:
The VHL NanoBRET™ Target Engagement Assay analyzes the apparent affinity of test compounds for VHL in cells by competitive displacement of a VHL NanoBRET™ tracer reversibly bound to a NanoLuc® VHL fusion protein stably expressed in the cells.
Test compounds were transferred to the assay plate (384 Well White Non-Binding Corning Assay Plates (Corning-3574)) using an Echo 555 Liquid Handler (Labcyte) in 2.5 nL increments and, as appropriate, intermediate stock concentrations of compounds, in order to prepare a titration series. 50 nL of control compound (10 mM; parental unlabeled VHL antagonist; see structure below) and 50 nL of DMSO (negative control) were dispensed into the appropriate control wells. DMSO was backfilled to a final volume of 50 nL as required. 50 nl per well of 1 mM VHL NanoBRET™ Tracer in DMSO (NanoBRET™ Tracer-PEG2-590 (see structure below)) was transferred into each well using an Echo 555 (ultimately yielding a final concentration of 1 uM). HEK 293 RT VHL-NanoLuc® stable cells were cultured in DMEM High Glucose with Pyruvate, 10% fetal bovine serum, 2 mg/mL of Geneticin Selective Antibiotic (50 mg/ml) and 2 mM HEPES (1 M). Cells were seeded in Opti-MEM (Life Technologies-11058-021), 1.7×10^5 cells/mL, 40 μl per well into the assay plate, centrifuged at 500 rpm for 30 seconds and incubated for 2 hours. Max Signal control wells consisted of DMSO only treated wells. Minimum Signal control wells contained of 10 uM parental unlabeled VHL antagonist (control compound—see structure below). 3× Complete Substrate plus Inhibitor Solution was prepared in Opti-MEM (consists of a 1:166 dilution of NanoBRET™ Nano-Glo® Substrate plus a 1:500 dilution of Extracellular NanoLuc® Inhibitor in Opti-MEM), and 20 ul was dispensed into each well of the 384-well plate and centrifuged at 1000 rpm for 1 minute, then incubated for 2 minutes at room temperature. Background Signal control wells were prepared without tracer for background correction steps.
Plates were read using a PerkinElmer Envision Reader (model 2104-0020) equipped with Luminescence option (Mirror: BRET2 Enh (PE Barcode 659), Emission Filter: Omega 610LP (Barcode 504), 2nd Emission Filter: Umbelliferone 460 (Barcode 207), Measurement height: 6.5 mm, Measurement time: 1 s). The raw BRET ratio values were calculated by dividing the acceptor emission value (610 nm) by the donor emission value (460 nm) for each sample. To correct for background, the BRET ratio in the absence of tracer (average of no-tracer control samples) was subtracted from the BRET ratio of each sample. Raw BRET units were converted to milliBRET units (mBU) by multiplying each raw BRET value by 1,000. The normalized NanoBRET™ signal was calculated relative to the Max Signal control wells (DMSO treated control wells) and the Minimum Signal control wells. Percentage inhibition was calculated relative to the Minimum Signal control and Maximum Signal control wells. IC50 values were derived by four parameter curve fitting using the Robust method.

The target in a further data set is T2, VHL (Homo sapiens, UniProt P40337).
T2 construct: expressed in transfected cells
T2 sequence (P40337 whole entry): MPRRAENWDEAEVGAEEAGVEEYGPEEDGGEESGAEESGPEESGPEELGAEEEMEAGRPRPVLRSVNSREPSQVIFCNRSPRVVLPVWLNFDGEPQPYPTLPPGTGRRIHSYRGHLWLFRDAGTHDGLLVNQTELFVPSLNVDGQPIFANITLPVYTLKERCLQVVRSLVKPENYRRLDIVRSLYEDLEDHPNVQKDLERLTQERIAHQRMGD
T2 sequence (Q15370 whole entry partner): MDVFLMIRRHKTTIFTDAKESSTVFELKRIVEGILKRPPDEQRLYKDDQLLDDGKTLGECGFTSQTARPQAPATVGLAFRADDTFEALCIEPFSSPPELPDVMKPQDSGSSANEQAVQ
T2 sequence (Q15369 whole entry partner): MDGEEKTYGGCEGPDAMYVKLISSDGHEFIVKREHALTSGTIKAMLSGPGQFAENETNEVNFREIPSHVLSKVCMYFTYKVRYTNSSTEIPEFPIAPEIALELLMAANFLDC
Kind of data set: VHL nanoBRET (+Digitonin). The class given is cell-based. For orientation: BRET reads energy transfer from a luciferase to a nearby fluorophore.

pEC50, pIC50: −log10 of the molar value.

T1 sequence (P40337 whole entry, the tested form may be a part): as the sequence (P40337 whole entry) above
T1 sequence (Q15370 whole entry partner, the tested form may be a part): as the sequence (Q15370 whole entry partner) above
T1 sequence (Q15369 whole entry partner, the tested form may be a part): as the sequence (Q15369 whole entry partner) above

Take `CNC(=O)[C@@H]1C[C@@H](O)CN1C(=O)[C@H](C(C)C)n1cc(C2(C)CC2)nn1` [Final product from Example S20, (2S,4R)-4-hydroxy-N-methyl-1-((S)-3-methyl-2-(4-(1-methylcyclopropyl)-1H-1,2,3-triazol-1-yl)butanoyl)pyrrolidine-2-carboxamide]: in data set [1], the pIC50 is 5.67 and the “Ratio cell permeability shift” value is on record as 1.71. The pEC50 (as a rule, the EC50 on a negative log10 scale, so that one unit is a factor of ten) on VHL is 5.91.
Regarding `CNC(=O)[C@@H]1C[C@@H](O)CN1C(=O)[C@H](C(C)C)n1cc(C2CCC2)nn1` [Final product from Example S21, (2S,4R)-1-((S)-2-(4-cyclobutyl-1H-1,2,3-triazol-1-yl)-3-methylbutanoyl)-4-hydroxy-N-methylpyrrolidine-2-carboxamide], in data set [1], the pIC50 is 5.55 and the “Ratio cell permeability shift” value is 0.86. This compound also had a pEC50 at VHL of 5.48.
On the same counts, the results for `CNC(=O)[C@@H]1C[C@@H](O)CN1C(=O)[C@H](C(C)C)n1cc(C2CCCC2)nn1` [Final product from Example S22, (2S, 4R)-1-[(2S)-2-(4-cyclopentyltriazol-1-yl)-3-methyl-butanoyl]-4-hydroxy-N-methyl-pyrrolidine-2-carboxamide] are 5.49, 1.15 and 5.56.
Consider `CNC(=O)[C@@H]1C[C@@H](O)CN1C(=O)C(=C(C)C)n1cc(C2CC2)nn1` [Final product from Example S27, (2S, 4R)-1-[2-(4-cyclopropyltriazol-1-yl)-3-methyl-but-2-enoyl]-4-hydroxy-N-methyl-pyrrolidine-2-carboxamide], for which the “Ratio cell permeability shift” value in data set [1] is reported as 0.96. On VHL, the pEC50 was 5.31.
In the case of `CNC(=O)[C@@H]1C[C@@H](O)CN1C(=O)[C@H](C(C)C)n1cc(-c2cccs2)nn1` [Final product from Example S28, (2S, 4R)-4-hydroxy-N-methyl-1-((S)-3-methyl-2-(4-(thiophen-2-yl)-1H-1,2,3-triazol-1-yl)butanoyl)pyrrolidine-2-carboxamide], in data set [1], the pIC50 is 6.23 and the “Ratio cell permeability shift” value was 0.75. The compound further showed a pEC50 at VHL of 6.10.
On the same counts, the results for `CNC(=O)[C@@H]1C[C@@H](O)CN1C(=O)[C@H](C(C)C)n1cc(-c2cnco2)nn1` [Final product from Example S32, (2S, 4R)-4-hydroxy-N-methyl-1-[(2S)-3-methyl-2-(4-oxazol-5-yltriazol-1-yl)butanoyl]pyrrolidine-2-carboxamide] are 5.49, 1.51 and 5.67.
On the same counts, the results for `CNC(=O)[C@@H]1C[C@@H](O)CN1C(=O)[C@H](C(C)C)n1cc(-c2ccccc2)nn1` [Final product from Example S34, (2S,4R)-4-hydroxy-N-methyl-1-((S)-3-methyl-2-(4-phenyl-1H-1,2,3-triazol-1-yl)butanoyl)pyrrolidine-2-carboxamide] are 5.86, 1.09 and 5.90.
As for `CNC(=O)[C@@H]1C[C@@H](O)CN1C(=O)[C@H](C(C)C)n1cc(-c2ccccn2)nn1` [Final product from Example S35, (2S,4R)-4-hydroxy-N-methyl-1-((S)-3-methyl-2-(4-(pyridin-2-yl)-1H-1,2,3-triazol-1-yl)butanoyl)pyrrolidine-2-carboxamide], in data set [1], the pIC50 is 5.77 and the “Ratio cell permeability shift” value turned out to be 0.85. For the same compound, the pEC50 at VHL was 5.70.
For the compound `CNC(=O)[C@@H]1C[C@@H](O)CN1C(=O)[C@H](C(C)C)n1cc(-c2cccnc2)nn1` [Final product from Example S36, (2S,4R)-4-hydroxy-N-methyl-1-((S)-3-methyl-2-(4-(pyridin-3-yl)-1H-1,2,3-triazol-1-yl)butanoyl)pyrrolidine-2-carboxamide], in data set [1], the pIC50 is 5.91 and the “Ratio cell permeability shift” value was found to be 1.21. Moreover, the negative logarithm of the EC50 (pEC50) at VHL was 6.00.
As to `CNC(=O)[C@@H]1C[C@@H](O)CN1C(=O)[C@H](C(C)C)n1cc(-c2ccncc2)nn1` [Final product from Example S37, (2S,4R)-4-hydroxy-N-methyl-1-((S)-3-methyl-2-(4-(pyridin-4-yl)-1H-1,2,3-triazol-1-yl)butanoyl)pyrrolidine-2-carboxamide], in data set [1], the pIC50 was 5.71 and the “Ratio cell permeability shift” value turned out to be 1.33. Further, the pEC50 on VHL was 5.83.
On the same counts, the results for `CNC(=O)[C@@H]1C[C@@H](O)CN1C(=O)[C@H](C(C)C)n1cc(-c2ncccn2)nn1` [Final product from Example S38, (2S,4R)-4-hydroxy-N-methyl-1-((S)-3-methyl-2-(4-(pyrimidin-2-yl)-1H-1,2,3-triazol-1-yl)butanoyl)pyrrolidine-2-carboxamide] are 4.86, 3.40 and 5.39.
As for `CNC(=O)[C@@H]1C[C@@H](O)CN1C(=O)[C@H](C(C)C)n1cc(-c2cncnc2)nn1` [Final product from Example S39, (2S,4R)-4-hydroxy-N-methyl-1-((S)-3-methyl-2-(4-(pyrimidin-5-yl)-1H-1,2,3-triazol-1-yl)butanoyl)pyrrolidine-2-carboxamide], in data set [1], the pIC50 was 5.77 and the “Ratio cell permeability shift” value is 2.35. For the same compound, the pEC50 on VHL is 6.14.
With `CNC(=O)[C@@H]1C[C@@H](O)CN1C(=O)[C@H](C(C)C)n1cc(-c2ccc(Cl)s2)nn1` [Final product from Example S40, (2S,4R)-1-((S)-2-(4-(5-chlorothiophen-2-yl)-1H-1,2,3-triazol-1-yl)-3-methylbutanoyl)-4-hydroxy-N-methylpyrrolidine-2-carboxamide], in data set [1], the pIC50 was 6.24 and the “Ratio cell permeability shift” value amounted to 1.24. This compound gave a negative-log EC50 (pEC50) on VHL of 6.34.
On the same counts, the results for `CC(C)[C@@H](C(=O)N1C[C@H](O)C[C@H]1C(=O)N(C)C)n1cc(C2CC2)nn1` [Final product from Example S41, (2S,4R)-1-((S)-2-(4-cyclopropyl-1H-1,2,3-triazol-1-yl)-3-methylbutanoyl)-4-hydroxy-N,N-dimethylpyrrolidine-2-carboxamide] are 4.30, 0.69 and 4.14.
